Legend:
FGFR1 = target: T1, FGFR1 (Homo sapiens, UniProt P11362); assay: AlexaFluor488-FGF2 binding on FGFR1-transfected 300-19 cells (flow cytometry); conditions: SSR 300 nM; FGF2 10 ng/ml; murine pre-B 300-19 cells
T1 construct: V5/His (encoded by the vector); expressed in transfected cells; host or cells: murine pre-B 300-19 cells
Description: (§1) FGF2 was labeled with Alexa Fluor 488 C5-maleimide (Invitrogen, A10254) following purchaser recommendations.
(§2) This AF488-FGF2 was used at 10 ng/ml in binding experiments on murine pre-B 300-19 cells transfected with FGFR1 or FGFR4 constructs in pEF6-V5/His Topo plasmids (Invitrogen). SSR (300 nM final) was pre-incubating 20 min with cells in RPMI 1640 (Invitrogen, 32404-014) with 10% FCS (Hyclone, SH30070.03), 2 mM glutamine, MEM non-essential amino-acid 1× (Gibco, 11140-035), MEM sodium pyruvate 1× (Gibco, 11360-039) and […] monothioglycerol (Sigma, M6145) at 4° C. under 150 rpm agitation. Then, FGF2 (10 ng/ml final) is added for 30 min and binding is measured using a FACS Calibur flow cytometer (Beckton Dickinson). Fluorescence median for each condition is also analysed.

FGFR2 = target: T2, FGFR2 (Homo sapiens, UniProt P21802); assay: FGFR2 multimerization; assay type: biochemical
T2 construct: or the expression of the entire intact receptor in its native environment

various FGFRs = assay: additional SPA assays, FGF ligands to various FGFRs; assay type: binding
FGF2 = FGF2 (Homo sapiens, UniProt P09038); assay: FGF2 dimerization; assay type: biochemical
FGFR4 [1] = target: T3, FGFR4 (Homo sapiens, UniProt P22455); assay: FGF2 binding to FGFR4 in intact cells; conditions: receptor expressed in intact cells
T3 construct: expressed in transfected cells; host or cells: murine pre-B 300-19 cells

FGFR2^∂23-Y328D = FGFR2^∂23-Y328D (Homo sapiens, UniProt P21802, Y328D); assay: FTIR measurement, FGFR2 Y328D mutant; design: FGFR2^∂23 (consisting of domain D2 and 3); made in house; conditions: 100 μM SSR
Description: (§3) Fourier transform infrared measurements were performed using a Bruker Tensor 37 FT-IR spectrometer equipped with an AquaSpec flowcell. The sample compartment was thermostatted to 25° C., 100 spectra were averaged for a good signal to noise ratio. Proteins were purified as described above. Immediately after the gelfiltration, the proteins were dialysed overnight in the same preparation of buffer (10 mM Hepes pH 7.2, 150 mM NaCl) in the presence or absence of SSR. Dialysis buffer samples were used to substract background signal. The analysis was performed using the OPUS software package, provided by Bruker. Interpretation of the results was performed as described {Barth, 2002 #60}.
We next explored whether SSR bound to amino acid residues that form part of the orthosteric site in D3 or to an alternative allosteric site. Initially, we used the molecular docking algorithms of the software packages MOLEGRO, Autodock and YASARA and available crystallographic data. […] These findings are consistent with a model whereby SSR binds to an allosteric site formed by a hydrophobic pocket near the orthosteric ligand binding site, and in which residue Tyr^328 seems to be critical for mediating the interaction between SSR to FGFR2. We also analyzed the FTIR spectrum of the aforementioned mutated FGFR2 fragments.

FGFR1^∂3 = target: T4, FGFR1^∂3 (Homo sapiens, UniProt P11362); assay: 1D-NMR, FGFR1 domain D3 fragment; assay type: binding
T4 construct: a fragment containing only domain D3 (FGFR1^∂3)
Description: All STD- and 1D-NMR experiments were carried out on a BRUKER three-channel DRX600 and on a BRUKER four-channel DRX800 spectrometer at the standard temperature of 298 K and were referenced to the internal standard 3-Trimethyl-2,2,3,3-tetradeuteropropionate-sodium salt (TSP). Typically, NMR samples contained 0.5 ml of protein ([…]) in 25 mM Tris/HCl, pH 8.0, 200 mM NaCl, 25 mM L-arginine, 2 mM EDTA, 0.02% azide (in 95% H2O/5% D2O). For protein ligand 1D STD NMR measurements spectra were recorded with 1 mM ligand SSR128129E (100 mM DMSO stock solution) and […] protein with weak 2s RF irradiation on separated protein methyl resonances. Water suppression was carried out using the standard Bruker WATERGATE 3-9-19 sequence. NMR data were processed using the Bruker program xwin NMR software.
Since SSR was a multi-FGFR inhibitor, we used polypeptide fragments of the various (human) FGFR subtypes. […] We then used ECD fragments of FGFRs to map the binding site of SSR to one of the three Ig-domains. […] In fact, FGFR1^∂3 and FGFR1^∂123 give identical signals (broad line) meaning that we obtained same affinity for these proteins while FGFR1^∂12 and FGFR1^∂2 cause sharp lines (FIG. 11B).

FGFR2^∂123 = target: T5, FGFR2^∂123 (Homo sapiens, UniProt P21802); assay: anisotropy measurement, FGF1-lumio binding to FGFR2 ECD without Fc-tag; conditions: >1,000 fold molar excess of SSR; FGF1-lumio 1 μM
T5 construct: we purified the entire extracellular domain of FGFR2 without Fc-tag (FGFR2^∂123); made in house
Description: To assess whether SSR inhibits the binding of FGF1 to its binding pocket, we purified the entire extracellular domain of FGFR2 without Fc-tag (FGFR2^∂123) and measured the tumbling speed (as a parameter of anisotropy) of a fluorescent lumio-tagged FGF1 (FGF1-lumio; constant concentration of 1 μM) in the presence of varying concentrations of FGFR2^∂123 without (blue) or with (red) SSR (1 mM). When FGFR2^∂123 was added to FGF1-lumio, the tumbling speed of the ligand/receptor complex was slower than of FGF-lumio alone, because of its larger size.
One hallmark of allosteric interactions is the phenomenon of ‘probe-dependence’ i.e., variations in the magnitude and direction of an allosteric interaction depending on the nature of the orthosteric ligand-receptor complex with which the modulator is interacting (May et al., 2007). To determine whether the effects of SSR on ^125I-FGF2 binding in the SPA were dependent on the configuration of the engineered FGFR/Fc fusion protein plated on an artificial substrate, we next studied whether SSR inhibited the binding of a fluorescent lumio-tagged FGF1 (FGF1-lumio) to a purified ECD of FGFR2 without the Fc-tag (FGFR2^∂123), by measuring the tumbling speed as a parameter of anisotropy. When FGFR2^∂123 was added to FGF1-lumio, the tumbling speed of the ligand/receptor complex was slower than of FGF-lumio alone because of its larger size. […]

FGFR4 [2] = target: T3, FGFR4; assay: AlexaFluor488-FGF2 binding on FGFR4-transfected 300-19 cells (flow cytometry); conditions: SSR 300 nM; FGF2 10 ng/ml; murine pre-B 300-19 cells
Description: as §1, §2

FGFR2^∂23 = target: T6, FGFR2^∂23 (Homo sapiens, UniProt P21802); assay: Fourier transform infrared (FTIR) measurement, FGFR2 D2-3; conditions: maximum around 1,640 cm^−1, 100 μM SSR
T6 construct: FGFR2^∂23 (consisting of domain D2 and 3); made in house
Description: as §3

T3 sequence (P22455 22-802): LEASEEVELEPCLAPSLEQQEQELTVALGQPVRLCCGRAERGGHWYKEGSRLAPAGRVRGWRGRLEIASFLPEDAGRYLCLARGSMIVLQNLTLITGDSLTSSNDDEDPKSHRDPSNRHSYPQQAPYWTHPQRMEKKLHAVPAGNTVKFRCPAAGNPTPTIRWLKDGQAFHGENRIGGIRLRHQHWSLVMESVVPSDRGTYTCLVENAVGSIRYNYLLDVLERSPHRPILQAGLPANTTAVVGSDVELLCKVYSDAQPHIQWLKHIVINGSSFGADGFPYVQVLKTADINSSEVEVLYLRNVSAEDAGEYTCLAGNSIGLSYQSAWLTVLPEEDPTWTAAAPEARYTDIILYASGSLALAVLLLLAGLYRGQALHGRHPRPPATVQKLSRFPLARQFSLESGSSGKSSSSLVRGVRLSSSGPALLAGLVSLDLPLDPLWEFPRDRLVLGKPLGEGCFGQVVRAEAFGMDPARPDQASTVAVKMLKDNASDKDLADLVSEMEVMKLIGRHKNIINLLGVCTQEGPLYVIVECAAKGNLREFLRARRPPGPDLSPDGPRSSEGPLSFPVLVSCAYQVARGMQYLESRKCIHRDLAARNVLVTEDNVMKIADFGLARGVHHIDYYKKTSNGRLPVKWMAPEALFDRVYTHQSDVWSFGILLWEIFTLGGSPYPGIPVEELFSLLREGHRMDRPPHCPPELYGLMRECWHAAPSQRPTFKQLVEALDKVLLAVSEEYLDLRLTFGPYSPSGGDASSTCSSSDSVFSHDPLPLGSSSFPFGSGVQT
FGF2, sequence (P09038 134-288, species assumed): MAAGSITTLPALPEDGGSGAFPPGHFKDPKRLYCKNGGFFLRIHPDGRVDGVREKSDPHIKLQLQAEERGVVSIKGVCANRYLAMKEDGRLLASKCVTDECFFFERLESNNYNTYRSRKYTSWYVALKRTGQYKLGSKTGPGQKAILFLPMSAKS
T2 sequence (P21802 22-821): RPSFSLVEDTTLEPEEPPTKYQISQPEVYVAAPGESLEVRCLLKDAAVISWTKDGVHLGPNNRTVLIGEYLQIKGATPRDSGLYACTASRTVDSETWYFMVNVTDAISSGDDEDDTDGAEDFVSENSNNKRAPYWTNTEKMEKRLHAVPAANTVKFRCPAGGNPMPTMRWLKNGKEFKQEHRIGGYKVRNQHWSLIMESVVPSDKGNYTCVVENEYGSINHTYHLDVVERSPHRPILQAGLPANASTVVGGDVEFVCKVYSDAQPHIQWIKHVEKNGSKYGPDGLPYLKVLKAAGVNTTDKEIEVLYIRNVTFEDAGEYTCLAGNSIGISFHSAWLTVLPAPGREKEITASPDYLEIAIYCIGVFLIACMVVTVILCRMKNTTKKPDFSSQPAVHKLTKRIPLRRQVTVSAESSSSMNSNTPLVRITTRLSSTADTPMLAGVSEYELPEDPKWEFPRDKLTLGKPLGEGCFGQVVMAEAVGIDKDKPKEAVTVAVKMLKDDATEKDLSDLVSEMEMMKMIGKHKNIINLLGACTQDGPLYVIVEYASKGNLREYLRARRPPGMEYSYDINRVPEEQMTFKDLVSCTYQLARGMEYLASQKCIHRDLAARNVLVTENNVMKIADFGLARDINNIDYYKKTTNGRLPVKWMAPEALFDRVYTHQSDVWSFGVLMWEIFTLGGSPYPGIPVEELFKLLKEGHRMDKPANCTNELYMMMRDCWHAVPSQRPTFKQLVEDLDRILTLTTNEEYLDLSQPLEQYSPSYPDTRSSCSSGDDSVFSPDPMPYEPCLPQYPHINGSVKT
T1 sequence (P11362 22-822): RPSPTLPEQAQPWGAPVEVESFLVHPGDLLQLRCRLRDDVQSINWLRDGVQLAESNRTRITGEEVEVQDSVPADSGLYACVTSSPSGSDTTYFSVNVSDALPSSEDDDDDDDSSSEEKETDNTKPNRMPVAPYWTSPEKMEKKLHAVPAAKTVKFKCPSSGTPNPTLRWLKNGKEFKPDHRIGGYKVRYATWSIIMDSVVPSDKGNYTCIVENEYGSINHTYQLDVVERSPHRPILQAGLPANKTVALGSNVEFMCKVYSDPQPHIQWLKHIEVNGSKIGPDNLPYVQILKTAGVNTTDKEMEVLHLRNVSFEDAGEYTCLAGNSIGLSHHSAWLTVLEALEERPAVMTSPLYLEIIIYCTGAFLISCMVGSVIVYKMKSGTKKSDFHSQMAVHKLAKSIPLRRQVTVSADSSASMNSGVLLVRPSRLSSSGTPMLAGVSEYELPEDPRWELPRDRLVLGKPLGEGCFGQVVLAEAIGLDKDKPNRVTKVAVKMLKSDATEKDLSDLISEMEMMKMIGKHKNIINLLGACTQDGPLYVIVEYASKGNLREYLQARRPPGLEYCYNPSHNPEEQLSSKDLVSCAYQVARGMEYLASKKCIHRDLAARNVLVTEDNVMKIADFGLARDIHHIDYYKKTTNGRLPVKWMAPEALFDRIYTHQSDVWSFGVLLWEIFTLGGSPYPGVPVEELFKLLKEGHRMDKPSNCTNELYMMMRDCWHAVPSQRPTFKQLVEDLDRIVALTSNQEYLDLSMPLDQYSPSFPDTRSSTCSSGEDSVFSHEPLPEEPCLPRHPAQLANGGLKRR
T4 sequence (P11362 255-357 limits assumed): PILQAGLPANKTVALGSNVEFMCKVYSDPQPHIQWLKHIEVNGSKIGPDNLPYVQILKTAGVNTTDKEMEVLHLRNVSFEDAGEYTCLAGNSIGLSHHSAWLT
T6 sequence (P21802 148-366 limits assumed): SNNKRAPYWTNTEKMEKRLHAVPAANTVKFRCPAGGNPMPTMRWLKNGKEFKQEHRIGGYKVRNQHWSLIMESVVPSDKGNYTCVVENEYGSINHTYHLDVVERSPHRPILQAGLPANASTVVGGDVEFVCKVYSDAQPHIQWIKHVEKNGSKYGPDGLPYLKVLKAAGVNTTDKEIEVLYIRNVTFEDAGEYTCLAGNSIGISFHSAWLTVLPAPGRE
FGFR2^∂23-Y328D, sequence (P21802 148-366 Y328D limits assumed): as the sequence (P21802 148-366 limits assumed) above, with Y181D counted along it
T5 sequence (P21802 22-377 limits assumed): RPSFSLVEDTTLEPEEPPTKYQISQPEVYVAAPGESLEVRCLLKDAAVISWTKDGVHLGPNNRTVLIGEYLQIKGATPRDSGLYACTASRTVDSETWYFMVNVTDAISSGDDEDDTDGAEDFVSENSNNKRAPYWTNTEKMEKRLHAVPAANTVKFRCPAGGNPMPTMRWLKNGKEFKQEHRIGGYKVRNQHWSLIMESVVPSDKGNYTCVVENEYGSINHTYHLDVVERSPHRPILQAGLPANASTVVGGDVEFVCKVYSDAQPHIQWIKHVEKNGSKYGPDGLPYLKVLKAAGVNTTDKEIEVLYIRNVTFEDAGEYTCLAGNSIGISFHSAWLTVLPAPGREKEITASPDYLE

## COc1c(C)c(C(=O)c2ccc(N)c(C(=O)[O-])c2)n2ccccc12.[Na+] [SSR]
FGFR1
  competition with AlexaFluor488-labelled FGF2 binding to FGFR1: not able to compete this binding
FGFR2
  FGFR2 dimerization (multimerization): not able to inhibit
Various FGFRs
  binding of different FGF ligands to various FGFRs: blocking the binding of different FGF ligands to various FGFRs
FGF2
  FGF2 dimerization: not able to inhibit
FGFR4 [1]
  binding of FGF2 to FGFR4: failed to antagonize
FGFR2^∂23-Y328D
  change of FTIR spectrum (conformational change): failed to induce this change
FGFR1^∂3
  binding to FGFR1 domain D3 fragment: identified a binding site for SSR
FGFR2^∂123
  tumbling speed (anisotropy) of FGF1-lumio/FGFR2^∂123 complex: failed to alter the tumbling speed of the complex
FGFR4 [2]
  competition with AlexaFluor488-labelled FGF2 binding to FGFR4: not able to compete this binding
FGFR2^∂23
  change of FTIR spectrum (conformational change): increase in the amplitude of the amide I band
